Experimental data published in patent US20240076626A1, “HYDROGEN PEROXIDE EVOLVED HOST CELL” (MedImmune Limited, priority 2020, published 2024).

Assays:
H2O2 evolved host cells [1] = test: ChemStress assay, survival with prooxidant chemical compounds (PrestoBlue); type: cell-based, Chinese hamster; settings: 72 hours growth in the presence of the stressor
Protocol: To confirm the H2O2 evolved host cell's ability to resist oxidative stress, the cells were evaluated for survival in response to several prooxidant chemical compounds selected to mimic bioreactor stressors: […] These chemicals affect a diverse subset of intracellular redox pathways such as those involved in GSH biosynthesis and turnover (BSO and MS) (Lee et al. (1992) “Effects of buthionine sulfoximine treatment on cellular glutathione levels and cytotoxicities of cisplatin, carboplatin and radiation in human stomach and ovarian cancer cell lines”. Korean J Intern Med. 7(2):111-7; Dunning et al. (2013) “Glutathione and antioxidant enzymes serve complementary roles in protecting activated hepatic stellate cells against hydrogen peroxide-induced cell death”. Biochim Biophys Acta. 1832(12):2027-34), intracellular ROS generation (MSB) (Beck et al. (2011) “Ascorbate/menadione-induced oxidative stress kills cancer cells that express normal or mutated forms of the oncogenic protein Bcr-Abl. An in vitro and in vivo mechanistic study”. […] J Neurosci Res. 64(6):646-53). Chem stress assays were performed according to the manufacturer's instructions (ChemStress®, […], Ireland). In brief, CHO or H2O2 evolved host cells were seeded into […] ChemStress plates (ChemStress®, […], Ireland) at 18,000 cells/well in 90 μl proprietary medium supplemented with 6 mM L-glutamine. A control well was incubated with medium alone. Plates were incubated for 72-hours in a static incubator at 36.5° C., 6% CO2. Following this, 10 μl of neat PrestoBlue dye (Thermo Fisher Scientific, UK) was added to all wells before plates were mixed for 20 seconds and incubated for a further 30 minutes at 36.5° C., 6% CO2. Plates were analyzed using a PHERAstar plate reader (BMG LABTECH, Ortenberg, Germany) with preconfigured protocols (excitation 560 nm, emission 590 nm). Data was analyzed, using the […] software ([…], Ireland).

H2O2 evolved host cells [2] = test: cells; settings: Cricetulus griseus
Protocol: The H2O2 evolved host and CHO control host were passaged to 90 PDL and 7 PDL respectively in CD-CHO supplemented with 6 mM glutamine after which both hosts were re-challenged with 37 mM H2O2 and viabilities recorded (viability measured on days 1, 2, 4, 7, 10, 11 and 12)
Specifically, CHO-K1 cells adapted to grow in suspension culture (CHO Control) were revived in chemically-defined (CD) CHO medium (Life technologies, Paisley, UK) supplemented with 6 mM L-glutamine (Life technologies, Paisley, UK) and passaged three times at 0.2×10^6 cells/ml in a 30 ml culture volume. When cells reached 99% viability, they were incubated for 1 hour with 14 mM H2O2 (Sigma-Aldrich, UK) before centrifugation at 130 g for 5 minutes and resuspended in 30 ml fresh CD CHO supplemented with 6 mM L-glutamine. CHO cells were left to recover until cells reached 70% viability. This process was repeated an additional three times resulting in a total of four exposures to 14 mM H2O2, in which cells gradually recovered over a period of 10-20 days, with the medium being replenished periodically, until cells reached 70% viability. The cells were then subjected to one round of 18.5 mM H2O2 treatment following the method above until cells reached 90% viability. […]

H2O2 evolved host A = test: Survival of BisAb-expressing pools in the presence of MSB (Vi-Cell viability); type: cell-based, Chinese hamster; settings: 6 μM MSB, up to 72 hours, cells expressing BisAb A, versus H2O treated control
Protocol: (§1) Expressing pools were compared for survival in the presence of the widely used prooxidant, menadione sodium bisulphite (MSB). Briefly, CHO Control or H2O2 evolved host cells expressing BisAbs A or BisAb B were seeded at 0.3×10^6 cells/ml into 30 ml of proprietary medium supplemented with 50 μM MSX. A total of 6 μM Menadione Sodium Bisulfite (MSB) (Sigma-Aldrich, UK) or water was added to test and control cultures, respectively. Cells were assessed for viability and viable cell density (VCD) using a Vi-Cell XR Cell Viability Analyser (Beckman Coulter, USA) at 24, 48 and 72 hours post addition of MSB or water.

H2O2 evolved host B = test: as above; type: cell-based, Chinese hamster; settings: 6 μM MSB, up to 72 hours, cells expressing BisAb B, versus H2O treated control
Protocol: as §1

Structure (SMILES) | viability of H2O2 evolved host cells compared to CHO control cells (H2O2 evolved host cells [1]) | viability at 37000 µM (H2O2 evolved host cells [2]) [%] | viability (H2O2 evolved host A) | viability (H2O2 evolved host B)
CCCCS(=N)(=O)CCC(N)C(=O)O (stereo not shown) [BSO, Buthionine Sulfoximine] | significantly improved viabilities |  |  | 
[Cl][Co][Cl] [CoCl, Cobalt chloride] | significantly improved viabilities |  |  | 
OO [H2O2, hydrogen peroxide] |  | ~50 |  | 
O=C(O)CC(S)C(=O)O (stereo not shown) [MS, Mercaptosuccinic Acid] | significantly improved viabilities |  |  | 
CC1(S(=O)(=O)[O-])CC(=O)c2ccccc2C1=O.[Na+] (stereo not shown) [MSB, Menadione Sodium Bisulphite] | significantly improved viabilities |  | comparable with H2O treated controls | comparable with H2O treated controls
